In brackets after ≈: the same amount, converted by molar mass.
Conditions: buffer; pH 7.4; 200.0 µM

Row | solubility kinetic [µg/mL] | SMILES
1 | 77 (≈ 143 µM) | O=C(O)c1cc(S(=O)(=O)N2CCN(S(=O)(=O)c3ccc4ccccc4c3)CC2)ccc1Br
2 | > 45 | Cn1cnnc1SCC(=O)Nc1ncc([N+](=O)[O-])s1
3 | 43.1 (≈ 142 µM) | O=C(c1cccnc1)N1c2ccccc2Sc2ccccc21
4 | 2.4 (≈ 7.73 µM) | Cc1ccc(C)c(Nc2c([N+](=O)[O-])c(=O)oc3ccccc23)c1
5 | > 45.7 | COc1ccc(N2CC(C(=O)N3CCOCC3)CC2=O)cc1 (configuration not stated)
6 | 22.5 (≈ 74.2 µM) | CCCCOc1ccc(OCCNC(=O)c2ccco2)cc1
7 | 2 (≈ 5.66 µM) | Cc1nc(NCCOc2ccccc2)sc1C(=O)Nc1ccccc1
8 | 5.5 (≈ 15.5 µM) | Cc1cccc(C(=O)N[C@H](C(=O)Nc2ccc3c(c2)OCO3)C(C)C)c1
9 | 37.5 (≈ 119 µM) | COc1ccc(CC(=O)O/N=C(\N)c2ccccc2)cc1OC
10 | 8.1 (≈ 27.1 µM) | O=S(=O)(c1ccc(-c2ccno2)s1)N1CCCCC1
11 | 49 (≈ 135 µM) | COc1ccc(CCNC(=O)C(C)OC(=O)c2cccs2)cc1OC (configuration not stated)
12 | > 48.8 | CCCCC(=O)Nc1cc(OC)c(NC(=S)NC)cc1OC
13 | 6.4 (≈ 17.9 µM) | COc1cc2c(cc1OC)CN(c1ccc(C(N)=O)cc1[N+](=O)[O-])CC2
14 | 41.5 (≈ 144 µM) | CC(=O)Nc1ccc(Cl)c(-c2nc3ncccc3o2)c1
15 | > 62.2 | COc1ccc(N2CCN(C(=O)CN3C(=O)NC4(CCCCC4C)C3=O)CC2)cc1 (configuration not stated)
16 | > 49.4 | CCCC(=O)Nc1cc(C(=O)O)ccc1Sc1ccc(C)cc1
17 | > 47.8 | O=C(NCC(c1ccco1)N1CCOCC1)c1ccc(F)cc1 (configuration not stated)
18 | > 57.1 | Cc1cccc(C)c1NC(=O)NC1(C(=O)NCc2ccncc2)CCCCC1
19 | 2.9 (≈ 10.5 µM) | NC(=O)c1ccccc1OCc1cccc2ccccc12
20 | > 33.9 | COc1ccc(OC)c([N+](=O)[O-])c1C(N)=O
21 | > 45.3 | CC1CCc2ccccc2N1C(N)=Nc1ccccc1.Cl (configuration not stated)
22 | < 0.7 | O=C(O)C1C2CCC(C2)C1C(=O)Nc1ccc(Cl)c(Cl)c1 (configuration not stated)
23 | 0.3 (≈ 1.01 µM) | Cc1nc(=S)c2c([nH]1)-c1ccccc1CC21CCCCC1
24 | < 0.7 | COC(=O)c1ccc(NC(=O)c2cc(Cl)ccc2OC)cc1

Row | solubility kinetic [µg/mL] | SMILES
25 | 0.6 (≈ 2.19 µM) | Cc1cccc(NC(=O)NC2CCCCCCC2)c1C
26 | > 45.8 | CCOc1ccc(C(=O)CC(C(=O)O)N2CCCCC2)cc1 (configuration not stated)
27 | > 53.3 | CCOc1ccccc1NC(=O)COC(=O)c1nc2nccc(C)n2n1
28 | 39.8 (≈ 108 µM) | O=C(CNC(=O)c1ccc(Br)o1)NCCc1ccc(F)cc1
29 | 41.6 (≈ 134 µM) | COc1ccccc1OCC(=O)NC1CCCc2ccccc21 (configuration not stated)
30 | < 0.7 | CCCOc1ccc(/C=C/C(=O)NC2CCCCC2)cc1OC
31 | 26.5 (≈ 131 µM) | Fc1cc2[nH]c(=S)[nH]c2cc1Cl
32 | 8.4 (≈ 30.5 µM) | COc1ccc(NC(=O)c2cnc(SC)nc2)cc1
33 | 1.6 (≈ 6.19 µM) | O=C(Nc1nc2ccccc2[nH]1)NC1CCCCC1
34 | 27 (≈ 87.6 µM) | CCn1c(/C=C/c2ccc(O)c(O)c2)nc2ccccc2c1=O
35 | 36.3 (≈ 108 µM) | CCOC(=O)c1cnc2c(ccc3ccccc32)c1NCCN(C)C
36 | 0.7 (≈ 2.41 µM) | CNc1nc(N)c([N+](=O)[O-])c(Nc2ccccc2OC)n1
37 | 4.4 (≈ 12.4 µM) | Nc1cc(=O)[nH]c(SCC(=O)Nc2cc([N+](=O)[O-])ccc2Cl)n1
38 | > 47.8 | O=C(Cn1c(NCCO)nc2ccccc21)NCC1CCCO1 (configuration not stated)
39 | 47.8 (≈ 145 µM) | COc1ccc(OCC(=O)NCCNC(=O)c2cccnc2)cc1
40 | < 0.6 | Cc1ccc(NC(=O)CCSc2ccccc2)c(C)c1
41 | 16.3 (≈ 46.7 µM) | Cc1ccc2nsnc2c1NC(=O)c1cncc(Br)c1
42 | 26.3 (≈ 88.3 µM) | Cc1ccc(OCCCCCN2CCOCC2)c(Cl)c1
43 | > 59.7 | O=C(CN1C(=O)NC2(CCCCC2)C1=O)NCCc1ccc(Cl)cc1Cl
44 | > 44.9 | CS(=O)(=O)N1CCN(Cc2ccc([N+](=O)[O-])cc2)CC1
45 | > 59.2 | COc1ccc(NC(=O)[C@@H]2CCCN2S(=O)(=O)c2ccc(Cl)cc2)cc1
46 | > 49.6 | COc1ccc2nc(C)cc(SCC(=O)N3CCCCC3)c2c1
47 | 4.3 (≈ 14.9 µM) | FC(F)(F)c1ccnc(NCc2ccc(Cl)cc2)n1
48 | 42 (≈ 141 µM) | Cc1ccc(-c2nc(CNC(=O)c3ccco3)cs2)cc1

Row | solubility kinetic [µg/mL] | SMILES
49 | 9.2 (≈ 22.4 µM) | O=C(Nc1cccc(S(=O)(=O)N2CCCCC2)c1)c1cc(=O)[nH]c2ccccc12
50 | 3.8 (≈ 11.7 µM) | CC(C)(C)c1ccc(NC(=O)CON=C(N)c2ccccc2)cc1
51 | 38 (≈ 146 µM) | CCOc1nc(Nc2ccccc2)nc(OCC)n1
52 | 9.4 (≈ 31.8 µM) | C=C(C)c1cccc(C(C)(C)NC(=O)Nc2cccnc2)c1
53 | 10 (≈ 26.2 µM) | O=C(COC(=O)/C=C/c1ccccc1[N+](=O)[O-])Nc1ccc2[nH]c(=O)[nH]c2c1
54 | 48.3 | Cl.NCCNC(=O)c1c(O)c2cccc3c2n(c1=O)CCC3
55 | > 36 | Cc1nn(CC(=O)NC(C)C)c(C)c1[N+](=O)[O-]
56 | 3.5 (≈ 10.2 µM) | COC(=O)c1ccc(NC(=O)CSc2nc3ncccc3[nH]2)cc1
57 | 4.5 (≈ 13.3 µM) | COc1ccc(C(=O)OCC(=O)c2c[nH]c3ccccc23)c(OC)c1
58 | 0.8 (≈ 2.47 µM) | Cc1nc(NCc2ccccc2)sc1C(=O)Nc1ccccc1
59 | 26.6 (≈ 120 µM) | Nc1ccc2nc(-c3ccccc3)cnc2c1
60 | 8.2 (≈ 21.2 µM) | O=C(COC(=O)c1ccc(Br)o1)Nc1ccc(F)cc1[N+](=O)[O-]
61 | 25.1 (≈ 79.8 µM) | COc1cccc(CN(C)C(=S)Nc2ccc(C)c(C)c2)c1
62 | > 48.4 | Cc1ccc(S(=O)(=O)NCCC2=CCCCC2)cc1C(N)=O
63 | 33.6 (≈ 106 µM) | COc1ccccc1CNCC(c1ccccc1)c1ccccc1
64 | > 50 | O=C(O)c1ccccc1C(=O)Nc1ccc(Oc2ccccc2)cc1
65 | 29.1 (≈ 94.4 µM) | CC(=O)C(C(c1ccccc1)c1c[nH]c2ccccc12)[N+](=O)[O-] (configuration not stated)
66 | > 52 | O=C(Nc1ccc(S(=O)(=O)N2CCOCC2)cc1)c1ccccc1
67 | 17.1 (≈ 53.2 µM) | CC1CC(C)CN(C(=O)CSc2ncnc3sccc23)C1 (configuration not stated)
68 | > 51.9 | CCCCn1c(=N)n(CC(O)c2ccccc2)c2ccccc21.Cl (configuration not stated)
69 | 43.1 (≈ 140 µM) | O=C(CN1C(=O)C(=O)c2ccccc21)NCCc1ccccc1
70 | 1.5 (≈ 5.01 µM) | COc1nc(C)nc(C)c1Oc1ccc(Cl)cc1Cl
71 | 14.7 (≈ 47.3 µM) | Cc1ccsc1C(=O)OCC(=O)Nc1ccc(Cl)cn1
72 | 6.1 (≈ 16.3 µM) | CC1CCC2(CC1)NC(=O)N(CC(=O)NCc1ccc3c(c1)OCO3)C2=O (configuration not stated)

Row | solubility kinetic [µg/mL] | SMILES
73 | 13 (≈ 37.9 µM) | Cc1csc(NC(=O)CN2C(=O)c3ccccc3C2=O)c1C(N)=O
74 | > 40.7 | CCOC(=O)c1cnc(SCC(=O)OC)nc1N
75 | > 47 | COc1ccc(NC(=O)c2cccnc2N2CCOCC2)cc1
76 | > 58.9 | CS(=O)(=O)Cc1ccc(C(=O)N2CCN(C(=O)c3cccs3)CC2)cc1
77 | 35.5 (≈ 123 µM) | c1ccc(-n2cnc3cc(NCc4ccco4)ccc32)cc1
78 | 5.1 (≈ 16.6 µM) | Cc1ccc(CNC(=O)CCc2cn(C)c3ccccc23)cc1
79 | 47.9 (≈ 146 µM) | NS(=O)(=O)c1ccc(CNC(=S)NC2CCCCC2)cc1
80 | > 44.3 | CC(NC(=O)c1ccncc1)c1ccc(Cl)cc1Cl (configuration not stated)
81 | 1.2 (≈ 4.85 µM) | N#Cc1c(-c2ccccc2)oc(=O)c2ccccc12
82 | 47.6 (≈ 134 µM) | COc1ccc(C(=O)N2CCC(c3ccccc3)CC2)c(OC)c1OC
83 | 20.3 (≈ 65.1 µM) | O=S1(=O)CCC(=Nc2ccc(Cl)cc2)c2ccsc21
84 | 41.4 (≈ 116 µM) | COc1cccc(NC(=O)CN(C)CC(=O)NC(C)c2ccccc2)c1 (configuration not stated)
85 | 34.6 (≈ 144 µM) | CN1CCN(S(=O)(=O)c2ccccc2)CC1
86 | 44.3 (≈ 147 µM) | CS(=O)(=O)N(CC(=O)N1CCCC1)c1cccc(F)c1
87 | > 50.2 | COc1ccccc1-n1cnnc1SCC(=O)N1CCOCC1
88 | 44.3 (≈ 143 µM) | CCN(c1ccccc1)S(=O)(=O)c1csc(C(N)=O)c1
89 | 3.2 (≈ 8.06 µM) | O=C(CCc1nc2ccccc2c(=O)[nH]1)N1CCN(c2ccccc2Cl)CC1
90 | 36.3 (≈ 133 µM) | Cc1nc(-c2ccccc2)sc1C(=O)/C=C/N(C)C
91 | 29 (≈ 128 µM) | CSCCC1COC(c2cccs2)=N1 (configuration not stated)
92 | > 42.3 | O=C1CN(C(=O)COc2ccccc2)c2ccccc2N1
93 | 30.5 (≈ 129 µM) | Cc1ccc(N=C2C(=O)Nc3ccccc32)cc1
94 | 6.6 (≈ 20 µM) | O=C1/C(=C\c2ccco2)SC(=S)N1C1CCS(=O)(=O)C1 (configuration not stated)
95 | > 49.9 | CC(CNC(=O)c1ccc(C#N)cc1)NC(=O)c1ccc(C#N)cc1 (configuration not stated)
96 | 14.9 (≈ 41.9 µM) | O=C(c1ccccc1Br)N1CCc2c([nH]c3ccccc23)C1

Row | solubility kinetic [µg/mL] | SMILES
97 | 6.5 (≈ 20.9 µM) | Cc1onc(-c2ccccc2)c1C(=O)NCc1ccccc1F
98 | 17 (≈ 32.7 µM) | Cc1ccc(S(=O)(=O)N2CCN(C(=O)COC(=O)c3cc([N+](=O)[O-])ccc3NCCO)CC2)c(C)c1
99 | 9.6 (≈ 31.5 µM) | Cc1ccc(CNC(=O)c2cncc(Br)c2)cc1
100 | > 53.6 | COc1ccc(CNC(=O)CSc2nc3ccc(OC)cc3[nH]2)cc1
101 | 6.3 (≈ 18.9 µM) | OC(CNc1nc(C(F)(F)F)nc2ccccc12)c1ccccc1 (configuration not stated)
102 | > 51.8 | O=C(c1ccc2c(c1)OCO2)C1CCCN(C(=O)C2CCOCC2)C1 (configuration not stated)
103 | > 47.5 | CCOC(=O)C1CCN(CC(=O)N2CCc3ccccc32)CC1
104 | 12.8 (≈ 38.9 µM) | CC(=O)c1sc(NC(=O)c2ccc(Br)o2)nc1C
105 | 1.7 (≈ 5.87 µM) | O=C1Nc2ccc(Cl)cc2C(=O)C1(F)c1ccccc1 (configuration not stated)
106 | 2.4 (≈ 10.6 µM) | Cc1ccc(-c2noc(-c3ccno3)n2)cc1
107 | 35.7 (≈ 101 µM) | O=C(COC(=O)/C=C/c1ccc(C(F)(F)F)cc1)NCc1ccco1
108 | 15.9 (≈ 44.6 µM) | CC(=O)c1c(COC(=O)c2ccccc2Cl)nc2ccccc2[n+]1[O-]
109 | > 60.9 | CC(=O)Nc1ccc(SCC(=O)N(C)CC(=O)Nc2ccccc2Cl)cc1
110 | > 45.8 | N/C(=N/S(=O)(=O)c1ccccc1)c1cccc([N+](=O)[O-])c1
111 | 15.8 (≈ 36 µM) | Cc1ccc(NC(=O)COC(=O)CCC2CCCC2)cc1S(=O)(=O)N1CCOCC1
112 | 11.2 (≈ 36.1 µM) | CC(C(=O)Nc1ccccc1)N1CCN(c2ccccn2)CC1 (configuration not stated)
113 | 1.1 (≈ 2.94 µM) | COc1ccc(C(=O)N2CCc3c([nH]c4ccccc34)C2C(F)(F)F)cc1 (configuration not stated)
114 | 45.4 (≈ 134 µM) | COc1ccc(C(=O)C2CCCN(S(=O)(=O)C(C)C)C2)c(C)c1 (configuration not stated)
115 | 4.2 (≈ 17.3 µM) | c1ccc2c(CN3CCSCC3)cccc2c1
116 | 3.7 (≈ 13.9 µM) | O=C(O)/C=C/c1ccc2noc(-c3ccccc3)c2c1
117 | 0.5 (≈ 1.28 µM) | O=S(=O)(c1ccccc1)N1CCN(C(=S)NCCc2ccccc2)CC1
